10 compounds from patent US11691971B2, “Naphthyridinone compounds as JAK2 V617F inhibitors” (Incyte Corporation, priority 2020, dated 2023) can be followed below.

Where a name gives a salt, the structure may show the parent alone.

What is called IC50 is the midpoint of a concentration-inhibition curve.

For assay [1], the target named is catalytic domain (JH1, amino acids 826-1132) of human JAK2 (Homo sapiens (Human), UniProt O60674). The experiment in a line: JAK2 LanthaScreen JH1 Binding Assay. As to conditions: JAK2 JH1 1.5 nM, 50 nM tracer, 2 hours at 25° C.; read-out: JH1BIND IC50. The procedure: Example A. JAK2 LanthaScreen JH1 Binding Assay
Chain of catalytic domain (JH1, amino acids 826-1132) of human JAK2 (O60674 826-1132): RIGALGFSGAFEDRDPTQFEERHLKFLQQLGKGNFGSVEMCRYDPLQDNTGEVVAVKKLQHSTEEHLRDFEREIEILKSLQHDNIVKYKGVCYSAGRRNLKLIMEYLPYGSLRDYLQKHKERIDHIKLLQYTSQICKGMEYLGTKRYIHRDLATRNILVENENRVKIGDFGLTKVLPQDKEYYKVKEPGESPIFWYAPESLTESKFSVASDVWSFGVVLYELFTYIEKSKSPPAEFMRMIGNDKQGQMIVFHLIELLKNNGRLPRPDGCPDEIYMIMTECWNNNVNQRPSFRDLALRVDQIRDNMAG
(§1) JAK2 JH1 binding assay utilizes catalytic domain (JH1, amino acids 826-1132) of human JAK2 expressed as N-terminal FLAG-tagged, biotinylated protein in a baculovirus expression system (Carna Biosciences, Product #08-445-20N). The assay was conducted in black 384-well polystyrene plates in a final reaction volume of 20 μL. JAK2 JH1 (1.5 nM) was incubated with compounds (100 nL serially diluted in DMSO) in the presence of 50 nM fluorescent JAK2-JH1 tracer and 0.5 nM Streptavidin-Tb cryptate (Cisbio Part #610SATLB) in assay buffer (50 mM Tris, pH=7.5, 10 mM MgCl2, 0.01% Brij-35, 0.1% BSA, 1 mM EGTA, 5% Glycerol and 5 mM DTT). Non-specific binding was accessed in the presence of 2 mM ATP. After incubation for 2 hours at 25° C., LanthaScreen signals were read on a PHERAstar FS plate reader (BMG LABTECH). Data was analyzed with IDBS XLfit and GraphPad Prism 5.0 software using a four parameter dose response curve to determine IC50 for each compound.
(In general: TR-FRET usually uses a lanthanide donor and a delayed reading to cut background.)

For assay [2], the target named is pseudo-kinase domain (JH2) of human Wild Type JAK2 (Homo sapiens (Human), UniProt O60674, F794H/W659A/W777A). The experiment in a line: JAK2 LanthaScreen JH2-WT Binding Assay. The note with it: JAK2 JH2-WT 0.145 nM, 50 nM tracer, 1 hour at 25° C.; read-out: JH2BIND_WT IC50. Here is the method: Example B. JAK2 LanthaScreen JH2-WT Binding Assay
Chain of pseudo-kinase domain (JH2) of human Wild Type JAK2 (O60674 536-812 W659A/W777A/F794H): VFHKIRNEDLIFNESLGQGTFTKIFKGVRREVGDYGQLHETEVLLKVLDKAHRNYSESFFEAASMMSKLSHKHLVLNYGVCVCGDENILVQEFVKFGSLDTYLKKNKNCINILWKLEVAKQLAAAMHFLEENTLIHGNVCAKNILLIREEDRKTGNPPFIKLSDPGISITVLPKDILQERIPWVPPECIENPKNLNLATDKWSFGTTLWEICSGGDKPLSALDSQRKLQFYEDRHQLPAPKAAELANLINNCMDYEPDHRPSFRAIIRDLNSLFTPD
as §1, with “The” for “JAK2 JH1 binding assay utilizes catalytic domain (JH1, amino acids 826-1132) of human JAK2 expressed as N-terminal FLAG-tagged, biotinylated protein in a baculovirus expression system (Carna Biosciences, Product #08-445-20N). The”, “JH2-WT (0.145” for “JH1 (1.5”, “Fluorescent JAK2-JH2 Tracer (MedChem Express Catalog #HY-102055)” for “fluorescent JAK2-JH1 tracer”, “0.25” for “0.5”, “1 hour” for “2 hours”

Assay [3] concerns the target pseudo-kinase domain (JH2) of human V617F mutant JAK2 (Homo sapiens (Human), UniProt O60674, F794H/V617F/W659A/W777A). The experiment in a line: JAK2 LanthaScreen JH2-V617F Binding Assay. As to conditions: JAK2 JH2-V617F 0.26 nM, 50 nM tracer, 1 hour at 25° C.; read-out: JH2BINDING_V617F IC50. The procedure: The assay was conducted in black 384-well polystyrene plates in a final reaction volume of 20 μL. […] Non-specific binding was accessed in the presence of 2 mM ATP. After incubation for 1 hour at 25° C., LanthaScreen signals were read on a PHERAstar FS plate reader (BMG LABTECH). Data was analyzed with IDBS XLfit and GraphPad Prism 5.0 software using a four parameter dose response curve to determine IC50 for each compound.

Assay [4] addresses catalytic domain (JH1, amino acids 808-1132) of human JAK2 (Homo sapiens (Human), UniProt O60674). The experiment in a line: JAK2 HTRF Enzyme Activity Assay. The assay is classed as biochemical. As to conditions: ATP 30 μM, 60 minutes at 25° C.; read-out: ENZ 30UMATP IC50. The procedure: Example D. JAK2 HTRF Enzyme Activity Assay
JAK2 enzyme activity assays utilize catalytic domain (JH1, amino acids 808-1132) of human JAK2 expressed as N-terminal His-tagged protein in a baculovirus expression system (BPS Bioscience, Catalog #40450). The assays was conducted in black 384-well polystyrene plates in a final reaction volume of 20 μL. JAK2 (0.015 nM) was incubated with compounds (100 nL serially diluted in DMSO) in the presence of ATP (30 μM or 1 mM) and 500 nM Biotin-labeled […] (SEQ ID NO.: 1) peptide (BioSource International, custom synthesis) in assay buffer (50 mM Tris, pH=7.5, 10 mM MgCl2, 0.01% Brij-35, 0.1% BSA, 1 mM EGTA, 5% Glycerol and 5 mM DTT) for 60 minutes at 25° C. The reactions were stopped by the addition of 10 μL of detection buffer (50 mM Tris, pH 7.8, 0.5 mg/mL BSA, 150 mM NaCl), supplemented with EDTA, LANCE Eu-W1024 anti-phosphotyrosine (PY20), (PerkinElmer, Catalog #AD0067) and Streptavidin SureLight APC (PerkinElmer Catalog #CR130-100), for a final concentration of 15 mM, 1.5 nM and 75 nM, respectively. HTRF signals were read after 30 minutes incubation at room temperature on a PHERAstar FS plate reader (BMG LABTECH). Data was analyzed with IDBS XLfit and GraphPad Prism 5.0 software using a four parameter dose response curve to determine IC50 for each compound.

Chain of pseudo-kinase domain (JH2) of human V617F mutant JAK2 (O60674 536-812 V617F/W659A/W777A/F794H): as the sequence (O60674 536-812 W659A/W777A/F794H) above, with V82F counted along it
Chain of catalytic domain (JH1, amino acids 808-1132) of human JAK2 (O60674 808-1132): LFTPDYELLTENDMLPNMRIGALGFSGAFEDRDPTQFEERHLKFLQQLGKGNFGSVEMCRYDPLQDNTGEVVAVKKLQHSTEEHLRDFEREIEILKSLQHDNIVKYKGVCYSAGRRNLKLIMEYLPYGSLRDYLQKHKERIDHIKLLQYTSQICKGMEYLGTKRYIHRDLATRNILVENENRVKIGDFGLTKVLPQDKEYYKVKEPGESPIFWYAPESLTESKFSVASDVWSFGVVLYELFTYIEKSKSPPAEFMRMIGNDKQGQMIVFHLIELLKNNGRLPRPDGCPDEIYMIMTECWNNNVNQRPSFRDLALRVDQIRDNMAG

Consider `COc1c(Nc2cc(NC(=O)C3CC3)nc3cc[nH]c(=O)c23)cccc1C(F)(F)F` [Example 14, N-(4-((2-Methoxy-3-(trifluoromethyl)phenyl)amino)-5-oxo-5,6-dihydro-1,6-naphthyridin-2-yl)cyclopropanecarboxamide Trifluoroacetic Acid Salt], for which the IC50 in assay [1] was over 10000 nM; in assay [2], 100 to 500 nM; in assay [3], 100 to 500 nM; in assay [4], over 10000 nM.
Regarding `O=C(Nc1cc(Nc2cccc(Cl)c2-c2cn[nH]c2)c2c(=O)[nH]ccc2n1)C1CC1` [Example 16, N-(4-((3-Chloro-2-(1H-pyrazol-4-yl)phenyl)amino)-5-oxo-5,6-dihydro-1,6-naphthyridin-2-yl)cyclopropanecarboxamide Trifluoroacetic Acid Salt], the half-maximal inhibitory concentration (IC50) in assay [1] was 1000 to 10000 nM; in assay [2], 500 to 1000 nM; in assay [3] it was 500 to 1000 nM; in assay [4] it was 1000 to 10000 nM.
As to `Cc1[nH]ncc1-c1c(Cl)cccc1Nc1cc(NC(=O)C2CC2)nc2cc[nH]c(=O)c12` [Example 17, N-(4-((3-Chloro-2-(5-methyl-1H-pyrazol-4-yl)phenyl)amino)-5-oxo-5,6-dihydro-1,6-naphthyridin-2-yl)cyclopropanecarboxamide Trifluoroacetic Acid Salt], the half-inhibitory concentration (IC50) was 1000 to 10000 nM in assay [1], 500 to 1000 nM in assay [2], 1000 to 10000 nM in assay [3] and 1000 to 10000 nM in assay [4].
Take `O=C(Nc1cc(Nc2cccc(C(F)(F)F)c2-c2cn[nH]c2)c2c(=O)[nH]ccc2n1)C1CC1` [Example 18, N-(4-((2-(1H-pyrazol-4-yl)-3-(trifluoromethyl)phenyl)amino)-5-oxo-5,6-dihydro-1,6-naphthyridin-2-yl)cyclopropanecarboxamide Trifluoroacetic Acid Salt]: the concentration for half-maximal inhibition (IC50) in assay [1] was over 10000 nM; in assay [2], 500 to 1000 nM; in assay [3] it was 500 to 1000 nM; in assay [4], over 10000 nM.
Take `Cc1[nH]ncc1-c1c(Nc2cc(NC(=O)C3CC3)nc3cc[nH]c(=O)c23)cccc1C(F)(F)F` [Example 19, N-(4-((2-(5-Methyl-1H-pyrazol-4-yl)-3-(trifluoromethyl)phenyl)amino)-5-oxo-5,6-dihydro-1,6-naphthyridin-2-yl)cyclopropanecarboxamide Trifluoroacetic Acid Salt]: the IC50 is over 10000 nM in assay [1], 1000 to 10000 nM in assay [2], 1000 to 10000 nM in assay [3] and over 10000 nM in assay [4].
With `O=C(Nc1cc(Nc2ccccc2OC(F)F)c2c(=O)[nH]ccc2n1)C1CC1` [Example 20, N-(4-((2-(Difluoromethoxy)phenyl)amino)-5-oxo-5,6-dihydro-1,6-naphthyridin-2-yl)cyclopropanecarboxamide Trifluoroacetic Acid Salt], the 50% inhibitory concentration (IC50) in assay [1], in assay [2], in assay [3] and in assay [4] was 1000 to 10000 nM in each case.
Take `COc1ccccc1Nc1cc(NC(=O)C2CC2)nc2cc[nH]c(=O)c12` [Example 21, N-(4-((2-Methoxyphenyl)amino)-5-oxo-5,6-dihydro-1,6-naphthyridin-2-yl)cyclopropanecarboxamide]: the concentration for half-maximal inhibition (IC50) is 1000 to 10000 nM in assay [1], 1000 to 10000 nM in assay [2], over 10000 nM in assay [3] and 1000 to 10000 nM in assay [4].
Regarding `CNc1ccccc1Nc1cc(NC(=O)C2CC2)nc2cc[nH]c(=O)c12` [Example 22, N-(4-((2-(Methylamino)phenyl)amino)-5-oxo-5,6-dihydro-1,6-naphthyridin-2-yl)cyclopropanecarboxamide Trifluoroacetic Acid Salt], the IC50 in assay [1], in assay [2], in assay [3] and in assay [4] was over 10000 nM in each case.
Take `O=C(Nc1cc(Nc2ccccc2CO)c2c(=O)[nH]ccc2n1)C1CC1` [Example 23, N-(4-((2-(Hydroxymethyl)phenyl)amino)-5-oxo-5,6-dihydro-1,6-naphthyridin-2-yl)cyclopropanecarboxamide Trifluoroacetic Acid Salt]: the IC50 is 1000 to 10000 nM in assay [1], 1000 to 10000 nM in assay [2], over 10000 nM in assay [3] and 1000 to 10000 nM in assay [4].
Regarding `O=C(Nc1cc(Nc2ccccc2OC2CC2)c2c(=O)[nH]ccc2n1)C1CC1` [Example 24, N-(4-((2-Cyclopropoxyphenyl)amino)-5-oxo-5,6-dihydro-1,6-naphthyridin-2-yl)cyclopropanecarboxamide Trifluoroacetic Acid Salt], the IC50 in assay [1] lay in the range of 1000 to 10000 nM; in assay [2], 1000 to 10000 nM; in assay [3], 1000 to 10000 nM; in assay [4], 500 to 1000 nM.
